One may read the IC50 as the point on the concentration scale where inhibition reaches its midpoint.

These results are taken from US20230416227A1, “PLASMA KALLIKREIN INHIBITORS” (Merck Sharp & Dohme LLC, priority 2020, published 2023).

The target of one assay is T1, Human plasma kallikrein (Homo sapiens, UniProt P03952).
T1 construct: yields a heavy chain (371 amino acids) and a light chain (248 amino acids); purchased Enzyme Research Laboratories
Nature of the assay: Plasma Kallikrein Assay. It is filed as biochemical. To be noted: purified Human plasma kallikrein 0.5 nM, substrate Acetyl-K-P-R-AFC, pH 7.4.

In another assay the target is human factor XIa (Homo sapiens, UniProt P03951). Nature of the assay: Factor XIa Assay. It is filed as biochemical. Conditions: human factor XIa 0.04 nM, substrate GPR-AFC, 30 min pre-incubation at 25° C., pH 7.4; read-out: FXIa IC50.
Chain of human factor XIa (P03951 388-625 limits assumed): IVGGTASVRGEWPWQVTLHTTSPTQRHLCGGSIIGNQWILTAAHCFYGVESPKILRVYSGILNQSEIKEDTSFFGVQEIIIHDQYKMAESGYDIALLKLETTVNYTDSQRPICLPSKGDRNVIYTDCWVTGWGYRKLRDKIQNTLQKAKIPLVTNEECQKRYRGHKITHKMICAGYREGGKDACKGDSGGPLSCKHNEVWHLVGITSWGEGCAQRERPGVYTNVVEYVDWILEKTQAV
Chain of human factor XIa (P03951 19-387 partner limits assumed): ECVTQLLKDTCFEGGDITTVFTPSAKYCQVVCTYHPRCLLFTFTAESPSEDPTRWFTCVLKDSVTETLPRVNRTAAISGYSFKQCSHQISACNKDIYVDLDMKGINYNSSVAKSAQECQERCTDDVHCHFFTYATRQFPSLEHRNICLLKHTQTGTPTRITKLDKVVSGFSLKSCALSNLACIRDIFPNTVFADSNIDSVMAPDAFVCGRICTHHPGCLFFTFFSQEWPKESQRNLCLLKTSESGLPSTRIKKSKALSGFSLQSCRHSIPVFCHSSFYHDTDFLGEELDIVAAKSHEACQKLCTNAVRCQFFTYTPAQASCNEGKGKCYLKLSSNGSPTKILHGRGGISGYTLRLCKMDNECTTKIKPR

T1 sequence (P03952 391-638 limits assumed): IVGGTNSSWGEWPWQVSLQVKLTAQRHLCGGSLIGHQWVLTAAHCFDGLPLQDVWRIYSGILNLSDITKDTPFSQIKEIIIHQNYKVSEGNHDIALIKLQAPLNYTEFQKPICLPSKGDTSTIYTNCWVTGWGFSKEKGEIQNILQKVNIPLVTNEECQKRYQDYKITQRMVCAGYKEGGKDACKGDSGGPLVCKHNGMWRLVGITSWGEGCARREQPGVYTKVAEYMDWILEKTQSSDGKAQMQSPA
T1 sequence (P03952 20-390 partner limits assumed): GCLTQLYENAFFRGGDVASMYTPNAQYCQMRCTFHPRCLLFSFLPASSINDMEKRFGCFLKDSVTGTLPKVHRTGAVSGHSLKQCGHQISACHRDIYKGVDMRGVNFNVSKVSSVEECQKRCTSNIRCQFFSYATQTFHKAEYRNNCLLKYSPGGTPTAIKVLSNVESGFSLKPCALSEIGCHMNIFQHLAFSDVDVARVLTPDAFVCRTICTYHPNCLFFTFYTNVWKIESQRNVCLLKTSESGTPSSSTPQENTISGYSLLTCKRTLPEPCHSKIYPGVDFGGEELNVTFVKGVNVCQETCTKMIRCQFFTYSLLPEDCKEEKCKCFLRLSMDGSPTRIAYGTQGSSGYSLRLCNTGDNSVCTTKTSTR

For the compound `COc1ncc(-c2c(C(F)F)ccc(Cl)c2F)nc1C(=O)Nc1cnn(Cc2cnc(N3CCC3)nc2)c1` [Example 1, N-(1-((2-(Azetidin-1-yl)pyrimidin-5-yl)methyl)-1H-pyrazol-4-yl)-6-(3-chloro-6-(difluoromethyl)-2-fluorophenyl)-3-methoxypyrazine-2-carboxamide], the values for the IC50 on Human plasma kallikrein and on human factor XIa were 10.2 nM and 921 nM, respectively.
`O=C(Nc1cnn(Cc2ccc(N3CCC(O)C3)nc2)c1)c1cncc(-c2c(C(F)F)ccc(Cl)c2F)n1` (stereo not drawn) [Example 123, 6-(3-Chloro-6-(difluoromethyl)-2-fluorophenyl)-N-(1-((6-(3-hydroxypyrrolidin-1-yl)pyridin-3-yl)methyl)-1H-pyrazol-4-yl)pyrazine-2-carboxamide]: the IC50 on Human plasma kallikrein turned out to be 27.3 nM; at human factor XIa, 3330 nM.
For `Cc1nc(Cn2cc(NC(=O)c3cncc(-c4c(C(F)F)ccc(Cl)c4F)n3)cn2)cnc1N1CC(F)(F)C1` [Example 15, 6-(3-Chloro-6-(difluoromethyl)-2-fluorophenyl)-N-(1-((5-(3,3-difluoroazetidin-1-yl)-6-methylpyrazin-2-yl)methyl)-1H-pyrazol-4-yl)pyrazine-2-carboxamide] the same measures were 8.1 nM and 3690 nM.
For `CC(C)(O)CNC[C@@H]1[C@@H]2C[C@@H]2CN1c1ncc(Cn2cc(NC(=O)c3cncc(-c4c(C(F)F)ccc(Cl)c4F)n3)cn2)cn1` [Example 139, 6-(3-Chloro-6-(difluoromethyl)-2-fluorophenyl)-N-(1-((2-((1R,2S,5S)-2-(((2-hydroxy-2-methylpropyl)amino)methyl)-3-azabicyclo[3.1.0]hexan-3-yl)pyrimidin-5-yl)methyl)-1H-pyrazol-4-yl)pyrazine-2-carboxamide] the same measures were 0.3 nM and 502 nM.
The matching figures for `O=C(Nc1cnn(C2(c3cnc(N4CCC4)nc3)CC2)c1)c1cncc(-c2c(C(F)F)ccc(Cl)c2F)n1` [Example 21, N-(1-(1-(2-(Azetidin-1-yl)pyrimidin-5-yl)cyclopropyl)-1H-pyrazol-4-yl)-6-(3-chloro-6-(difluoromethyl)-2-fluorophenyl)pyrazine-2-carboxamide]: 17 nM and 973 nM.
Regarding `Cc1nc(N2CCC2)ncc1[C@H](C)n1cc(NC(=O)c2cncc(-c3c(C(F)F)ccc(Cl)c3F)n2)cn1` (single isomer, unassigned) [Example 69], the half-inhibitory concentration (IC50) on Human plasma kallikrein amounted to 64.3 nM; on human factor XIa, 8070 nM.
The matching figures for `O=C(O)c1ncc(-c2c(C(F)F)ccc(Cl)c2F)nc1C(=O)Nc1cnn(Cc2cnc(N3CCC3)nc2)c1` [Example 137, 3-((1-((2-(Azetidin-1-yl)pyrimidin-5-yl)methyl)-1H-pyrazol-4-yl)carbamoyl)-5-(3-chloro-6-(difluoromethyl)-2-fluorophenyl)pyrazine-2-carboxylic acid]: 21.2 nM and 4100 nM.
For `O=C(Nc1cnn(Cc2cnc(N3CCC3)cn2)c1)c1cncc(-c2c(C(F)F)ccc(Cl)c2F)n1` [Example 13, N-(1-((5-(Azetidin-1-yl)pyrazin-2-yl)methyl)-1H-pyrazol-4-yl)-6-(3-chloro-6-(difluoromethyl)-2-fluorophenyl)pyrazine-2-carboxamide] the same measures were 7.2 nM and 1840 nM.
For `C[C@@H](F)CN(C)CC1CCCN1c1ncc(Cn2cc(NC(=O)c3cncc(-c4c(C(F)F)ccc(Cl)c4F)n3)cn2)cn1` (stereo partly drawn) [Example 151, 6-(3-Chloro-6-(difluoromethyl)-2-fluorophenyl)-N-(1-((2-(2-((((R)-2-fluoropropyl)(methyl)amino)methyl)pyrrolidin-1-yl)pyrimidin-5-yl)methyl)-1H-pyrazol-4-yl)pyrazine-2-carboxamide] the same measures were 1 nM and 7720 nM.
